The target in this assay is human NAMPT (Homo sapiens (Human), UniProt P43490). In words: NMN fluorescence biochemical assay (human recombinant NAMPT enzyme assay). In a few lines:
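Activation of recombinant human NAMPT (6 nM) was tested with 2.5 mM ATP, 20 μM PRPP and 150 μM nicotinamide in 50 mM HEPES pH 7.2 for 60 min at ambient temperature. NMN was derivatized with acetophenone/KOH/formic acid and read by fluorescence (355/460 nm) after 40 min.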
Chain of human NAMPT (P43490 whole entry): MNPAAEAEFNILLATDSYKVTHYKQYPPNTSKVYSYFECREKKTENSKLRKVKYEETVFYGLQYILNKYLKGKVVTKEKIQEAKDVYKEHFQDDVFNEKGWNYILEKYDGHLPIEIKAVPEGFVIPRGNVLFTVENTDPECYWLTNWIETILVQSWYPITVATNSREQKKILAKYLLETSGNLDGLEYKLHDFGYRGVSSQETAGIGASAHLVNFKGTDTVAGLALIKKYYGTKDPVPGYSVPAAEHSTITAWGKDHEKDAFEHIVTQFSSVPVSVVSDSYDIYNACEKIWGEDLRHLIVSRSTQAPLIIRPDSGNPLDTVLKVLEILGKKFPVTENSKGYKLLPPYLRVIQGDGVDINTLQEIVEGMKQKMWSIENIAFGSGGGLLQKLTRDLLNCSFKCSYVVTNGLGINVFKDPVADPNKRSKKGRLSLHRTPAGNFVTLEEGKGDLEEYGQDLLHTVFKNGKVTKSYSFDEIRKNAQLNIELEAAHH
`O=C(Nc1ccc(CNC(=O)C2COC2)cc1)OCc1ccc(Cl)cc1` [Compound 310, (4-chlorophenyl)methyl N-{4-[(oxetan-3-ylformamido)methyl]phenyl}carbamate]: the “AC1.4 Human” value was 5.29 µM and the EC50 amounted to 32.8 µM.
With `O=C(Cc1cnco1)NCc1ccc(NC(=O)OCc2ccc(Cl)cc2)cc1` [Compound 311, (4-chlorophenyl)methyl N-(4-{[2-(1,3-oxazol-5-yl)acetamido]methyl}phenyl)carbamate], the “AC1.4 Human” value turned out to be 5.40 µM and the EC50 was 26.8 µM.
In the case of `O=C1CN(C(=O)C(F)(F)c2ccc(NC(=O)OCc3ccc(Cl)cc3)cc2)CCN1` [Compound 312, (4-chlorophenyl)methyl N-{4-[1,1-difluoro-2-oxo-2-(3-oxopiperazin-1-yl)ethyl]phenyl}carbamate], the “AC1.4 Human” value is 5.55 µM and the concentration for a half-maximal effect (EC50) is 39.1 µM.
In the same order, the values of `O=C(Nc1ccc(C2CCN(C3COC3)CC2)cc1)OCc1cnco1` [Compound 313, 1,3-oxazol-5-ylmethyl N-{4-[1-(oxetan-3-yl)piperidin-4-yl]phenyl}carbamate] are 5.55 µM and 25.6 µM.
The like results for `Cn1nccc1Cc1ccc(NC(=O)OCc2ccc(Cl)cc2)cc1` [Compound 314, 4-chlorobenzyl (4-((1-methyl-1H-pyrazol-5-yl)methyl)phenyl)carbamate] were, in that order, 5.75 µM and 38.3 µM.
Take `Cn1cc(CC(=O)NCc2ccc(NC(=O)OCc3ccc(Cl)cc3)cc2)cn1` [Compound 315, (4-chlorophenyl)methyl N-(4-{[2-(1-methylpyrazol-4-yl)acetamido]methyl}phenyl)carbamate]: the “AC1.4 Human” value was 5.91 µM and the EC50 came out at 7.32 µM.
With `O=C(Nc1ccc(CC2CCN(C3COC3)CC2)cc1)OCc1ccncc1` [Compound 316], the “AC1.4 Human” value came out at 6.04 µM and the EC50 turned out to be 28.6 µM.
For `O=C(Nc1ccc(CC(=O)N2CC[C@@H](O)C2)cc1)OCc1ccc(Cl)cc1` [Compound 317, (4-chlorophenyl)methyl N-(4-{2-[(3R)-3-hydroxypyrrolidin-1-yl]-2-oxoethyl}phenyl)carbamate], the “AC1.4 Human” value was determined as 6.19 µM and the EC50 worked out at 32.4 µM.
In the same order, the values of `COc1ccc(COC(=O)Nc2ccc(CN3CCN(C4COC4)CC3)cc2)cc1` [Compound 318, (4-methoxyphenyl)methyl N-(4-{[4-(oxetan-3-yl)piperazin-1-yl]methyl}phenyl)carbamate] are 6.26 µM and 56.8 µM.
On to `O=C(Nc1ccc(CC(=O)N2CC[C@H](O)C2)cc1)OCc1ccc(Cl)cc1` [Compound 319, (4-chlorophenyl)methyl N-(4-{2-[(3S)-3-hydroxypyrrolidin-1-yl]-2-oxoethyl}phenyl)carbamate], for which the “AC1.4 Human” value is 6.50 µM and the EC50 is 40.8 µM.
In the same order, the values of `O=C(Nc1ccc(CC2CCNCC2)cc1)OCc1cnco1` [Compound 320, oxazol-5-ylmethyl (4-(piperidin-4-ylmethyl)phenyl)carbamate] are 6.60 µM and 34.2 µM.
As for `Cc1ocnc1C(=O)NCc1ccc(NC(=O)OCc2ccc(Cl)cc2)cc1` [Compound 321, (4-chlorophenyl)methyl N-(4-{[(5-methyl-1,3-oxazol-4-yl)formamido]methyl}phenyl)carbamate], the “AC1.4 Human” value was determined as 6.86 µM and the EC50 was 55.7 µM.
For the compound `Cc1nnc(Cc2ccc(NC(=O)OCc3ccc(Cl)cc3)cc2)o1` [Compound 322, (4-chlorophenyl)methyl N-{4-[(5-methyl-1,3,4-oxadiazol-2-yl)methyl]phenyl}carbamate], the “AC1.4 Human” value turned out to be 7.23 µM and the EC50 was 39.3 µM.
With `Cc1ccc(CNC(=O)Cc2ccc(NC(=O)OCc3ccc(Cl)cc3)cc2)cn1` [Compound 323, (4-chlorophenyl)methyl N-[4-({[(6-methylpyridin-3-yl)methyl]carbamoyl}methyl)phenyl]carbamate], the “AC1.4 Human” value amounted to 7.41 µM and the EC50 was found to be 13.3 µM.
The like results for `COc1ccc(COC(=O)Nc2ccc(CN3CC(S(C)(=O)=O)C3)cc2)cc1` [Compound 324, (4-methoxyphenyl)methyl N-{4-[(3-methanesulfonylazetidin-1-yl)methyl]phenyl}carbamate] were, in that order, 7.47 µM and 50.9 µM.
Consider `COc1ccc(COC(=O)Nc2ccc(CN3CCN(C)C(=O)C3)cc2)cc1` [Compound 325, (4-methoxyphenyl)methyl N-{4-[(4-methyl-3-oxopiperazin-1-yl)methyl]phenyl}carbamate], for which the “AC1.4 Human” value is 7.87 µM and the EC50 is 51.1 µM.
For `O=C(Nc1ccc(Cc2ccncc2)cc1)OCc1ccnnc1` [Compound 326, pyridazin-4-ylmethyl (4-(pyridin-4-ylmethyl)phenyl)carbamate], the “AC1.4 Human” value amounted to 8.05 µM and the EC50 stood at 31.9 µM.
The like results for `O=C(Nc1ccc(CNC(=O)c2ccnn2C2CCC2)cc1)OCc1ccc(Cl)cc1` [Compound 327, (4-chlorophenyl)methyl N-(4-{[(2-cyclobutylpyrazol-3-yl)formamido]methyl}phenyl)carbamate] were, in that order, 8.21 µM and 21.1 µM.
With `Cc1ccc(Cc2ccc(NC(=O)OCc3ccc(C(F)F)cc3)cc2)cn1` [Compound 328, (4-(difluoro-13-methyl)phenyl)methyl (4-((6-methylpyridin-3-yl)methyl)phenyl)carbamate], the “AC1.4 Human” value came to 8.56 µM and the EC50 came to 36.3 µM.
`CC(O)(c1ccncc1)c1ccc(NC(=O)OCc2cncs2)cc1` (centres unmarked) [Compound 329, thiazol-5-ylmethyl (4-(1-hydroxy-1-(pyridin-4-yl)ethyl)phenyl)carbamate]: the “AC1.4 Human” value was found to be 8.65 µM and the EC50 came to 33.6 µM.
Consider `O=C(Cc1cnoc1)NCc1ccc(NC(=O)OCc2ccc(Cl)cc2)cc1` [Compound 330, (4-chlorophenyl)methyl N-(4-{[2-(1,2-oxazol-4-yl)acetamido]methyl}phenyl)carbamate], for which the “AC1.4 Human” value was 8.66 µM and the EC50 turned out to be 46.3 µM.
As for `Cc1ccc(Cc2ccc(NC(=O)OCc3ccc(F)cc3)cc2)cn1` [Compound 331, 4-fluorobenzyl (4-((6-methylpyridin-3-yl)methyl)phenyl)carbamate], the “AC1.4 Human” value turned out to be 8.67 µM and the EC50 came out at 11.9 µM.
For `CN1CCN(C(=O)Cc2ccc(NC(=O)OCc3ccc(Cl)cc3)cc2)CC1=O` [Compound 332, (4-chlorophenyl)methyl N-{4-[2-(4-methyl-3-oxopiperazin-1-yl)-2-oxoethyl]phenyl}carbamate], the “AC1.4 Human” value was determined as 8.89 µM and the EC50 stood at 50.6 µM.
With `O=C(Nc1ccc(Cc2ccncc2)cc1)OCc1cnoc1` [Compound 333, isoxazol-4-ylmethyl (4-(pyridin-4-ylmethyl)phenyl)carbamate], the “AC1.4 Human” value was 9.58 µM and the EC50 came out at 38.6 µM.
The like results for `O=C(Cn1cccn1)NCc1ccc(NC(=O)OCc2ccc(Cl)cc2)cc1` [Compound 334, (4-chlorophenyl)methyl N-(4-{[2-(pyrazol-1-yl)acetamido]methyl}phenyl)carbamate] were, in that order, 9.87 µM and 9.33 µM.
For the compound `O=C(Nc1ccc(Cc2nccs2)cc1)OCc1ccc(Cl)cc1` [Compound 336, 4-chlorobenzyl (4-(thiazol-2-ylmethyl)phenyl)carbamate], the “AC1.4 Human” value turned out to be 10.07 µM and the EC50 was found to be 24.3 µM.
Regarding `CN([C@@H]1CCOC1)S(=O)(=O)c1ccc(NC(=O)OCc2ccc(Cl)cc2)cc1` [Compound 337, 4-chlorobenzyl (R)-(4-(N-methyl-N-(tetrahydrofuran-3-yl)sulfamoyl)phenyl)carbamate], the “AC1.4 Human” value turned out to be 10.15 µM and the EC50 is 26.4 µM.
As to `O=C(Cc1ccc(NC(=O)OCc2ccc(Cl)cc2)cc1)N[C@H]1CC[C@H](OC(F)(F)F)CC1` [Compound 338, (4-chlorophenyl)methyl N-[4-({[(1r,4r)-4-(trifluoromethoxy)cyclohexyl]carbamoyl}methyl)phenyl]carbamate], the “AC1.4 Human” value is 10.44 µM and the EC50 is 18.4 µM.
On to `O=C(Cc1ccc(NC(=O)OCc2ccc(Cl)cc2)cc1)NC1COC1` [Compound 339, 4-chlorobenzyl (4-(2-(oxetan-3-ylamino)-2-oxoethyl)phenyl)carbamate], for which the “AC1.4 Human” value came out at 10.65 µM and the EC50 worked out at 45.5 µM.
For the compound `Cc1ocnc1C(=O)N(C)Cc1ccc(NC(=O)OCc2ccc(Cl)cc2)cc1` [Compound 340, (4-chlorophenyl)methyl N-(4-{[N-methyl-1-(5-methyl-1,3-oxazol-4-yl)formamido]methyl}phenyl)carbamate], the “AC1.4 Human” value is 10.65 µM and the EC50 stood at 45.6 µM.
For `COc1ccc(COC(=O)Nc2ccc([C@H](C)C(=O)N3CCC[C@H]3CO)cc2)cc1` [Compound 341], the “AC1.4 Human” value came out at 11.08 µM and the EC50 was 55.6 µM.
On to `O=C(Nc1ccc(CNC(=O)c2ocnc2C2CC2)cc1)OCc1ccc(Cl)cc1` [Compound 343, (4-chlorophenyl)methyl N-(4-{[(4-cyclopropyl-1,3-oxazol-5-yl)formamido]methyl}phenyl)carbamate], for which the “AC1.4 Human” value was found to be 11.85 µM and the EC50 amounted to 21.9 µM.
`Cc1noc(Cc2ccc(NC(=O)OCc3ccc(Cl)cc3)cc2)n1` [Compound 344, (4-chlorophenyl)methyl N-{4-[(3-methyl-1,2,4-oxadiazol-5-yl)methyl]phenyl}carbamate]: the “AC1.4 Human” value was 13.04 µM and the EC50 amounted to 34 µM.
With `Cn1nc(C(F)F)cc1C(=O)NCc1ccc(NC(=O)OCc2ccc(Cl)cc2)cc1` [Compound 345, (4-chlorophenyl)methyl N-[4-({[5-(difluoromethyl)-2-methylpyrazol-3-yl]formamido}methyl)phenyl]carbamate], the “AC1.4 Human” value stood at 13.49 µM and the EC50 amounted to 20.3 µM.

Broadly, the EC50 is the concentration at which the effect is half-maximal.

For the origin of these results see patent US20240279215A1 (Cytokinetics, Incorporated, priority 2022, published 2024).
